{
  "source": "patent US20260365684A1",
  "about": "“PHYTOSPHINGOSINE-3,4-CYCLICPHOSPHATE COMPOUND AND PHARMACEUTICAL COMPOSITION COMPRISING THE SAME” (AXCESO BIOPHARMA CO., LTD., priority 2022, published 2026)",
  "key": {"[1]": {"tested_on": "SIRT1", "test": "SIRT1 expression in HUVECs by western blot", "format": "cell-based, human", "method": "To determine the increase in SIRT1 expression by the compound of formula (1a-1) prepared in Example 1 above in human umbilical vein endothelial cells (HUVECs), HUVECs were seeded at 5×10^5/4 ml in a 60 mm cell culture dish using ECBM2 medium (Promocell) and stabilized for 12 hours in an incubator maintained at 37 °C and 5% CO2, respectively.\nThe cells were then treated with 10 nM, 100 nM and 1000 nM of the compound of formula (1a-1) prepared in Example 1 above, respectively, and incubated for another 24 hours, and then SIRT1 expression was determined by western blot."}, "[2]": {"tested_on": "MYSEC (murine yolk sac endothelial cell) cell lines", "test": "In vitro permeability of MYSEC cell line (LPS, trans well, HRP)", "format": "cell-based", "conditions": "FIG. 11A", "method": "(§1) Permeability was measured by an in vitro method using cell culture and in vivo method using Evans blue dye. To increase permeability, LPS was used in the in vitro method and CLP treatment was used in the in vivo method.\nTo measure permeability by an in vitro method, MYSEC (murine yolk sac endothelial cell) cell lines were used. MYSEC cell lines were placed in the top chamber of a trans well at 2.5×10^5 cells/well and treated with 300 ng of lipopolysaccharide (LPS) derived from Gram-negative bacteria in the presence of the compound of formula (1a-1) for 24 hours. The medium in the top chamber was replaced with 300 μl of serum-free medium containing 5 μl of streptoavidin-HRP. After 5 minutes, 20 μl of the medium in the lower chamber was taken and the activity of HRP was measured as absorbance at 450 nm.\nTo determine the mechanism by which the compound of formula (1a-1) improves permeability, the same experiment was performed by knocking down the SIRT1 protein in the MYSEC cell line."}, "[3]": {"tested_on": "mouse organs", "test": "In vivo permeability of mouse organs after CLP (Evans blue dye)", "conditions": "treated at 6 and 16 hours after CLP, EBD i.v. at 18 hours; FIG. 11C", "method": "as §1\nTo measure permeability by an in vivo method, the compound of formula (1a-1) was treated at 6 and 16 hours after CLP treatment in the same manner as in Experimental Example 7 above, and 200 μl of a 0.5% Evans blue dye (EBD) solution was administered intravenously at 18 hours, circulated for 1 hour, and organs were harvested to visually confirm the presence of dye. The organs were then homogenized in a homogenizer to extract the dye at 55 °C for 48 hours, and permeability was determined by measuring absorbance at 620 nm."}, "[4]": {"tested_on": "tyrosine hydroxylase (TH)", "test": "Tyrosine hydroxylase expression in differentiated SH-SY5Y dopaminergic neurons by western blot", "format": "cell-based, human", "conditions": "FIG. 6", "method": "To analyze the effect on the expression of tyrosine hydroxylase (TH) and α-synuclein as neuron-specific proteins, western blot was performed.\nSH-SY5Y cell line was treated with retinoic acid and 12-O-tetradecanoylphorbol-13-acetate (TPA) to induce differentiation into TH-secreting neurons for 6 days.\nDifferentiated dopaminergic neurons were lysed in PRO-PREP (Intronbio), a cell lysis solution containing protease inhibitor cocktail (Gendepot), and electrophoresed in 10% SDS polyacrylamide gels at 20 μg/well. Transfer was performed using PVDF (Merck millipore) as a membrane, and tyrosine hydroxylase antibody, «-synuclein antibody (Cell signaling), and β-actin antibody (Santa Cruz) were used for reaction for more than 2 hours. Protein expression was detected by staining with ECL substrate (Biorad) for development and graphed using the image J program."}, "[5]": {"tested_on": "pluripotent stem cells", "test": "Differentiation of pluripotent stem cells into dopaminergic neurons", "format": "cell-based", "conditions": "FIG. 5", "method": "Pluripotent stem cells were seeded in Aggre Well plates (stemcell) at 5,000 cells/microwell and cultured for 5 days in E6 medium (GIBCO) to induce embryonic body (EB) formation. For neural rosette formation, EBs were seeded into 35 mm dishes in groups of 30 and cultured for 10 days in N2bF medium. The 35 mm dishes were used after being coated with 15 μg/ml of poly-L-ornithine (sigma) and 1 μg/ml of fibronectin (sigma). The N2Bf medium composition was DMEM/F12 (GIBCO), N2 supplement (stemcell) 1×, 10% NEAA (GIBCO), 55 µM beta-Mercaptoethanol (GIBCO), bFGF (peprotech) 20 ng/ml. For the formation of spherical neural masses (SNMs), rosette masses were sliced and cultured in petri dishes with N2bF medium. SNMs were no larger than 500 UM in size and were sliced and cultured for 3 to 4 passages. After subculture of SNM, the clumps were broken into small pieces using a tungsten mesh (Nilaco) for the neural progenitor cell (NPC) culture step, and then attached to a PLO/FN-coated dish and cultured in N2bF medium. […]\n(§2) The effect of the compound of formula (1a-1) on differentiation into neurons was evaluated by comparing the expression of tyrosine hydroxylase (TH) and dopamine transporter (DAT) depending on the presence or absence of treatment with the compound of formula (1a-1)."}, "[6]": {"tested_on": "tyrosine hydroxylase (TH)", "test": "Differentiation of pluripotent stem cells into dopaminergic neurons: tyrosine hydroxylase expression", "format": "cell-based", "method": "Pluripotent stem cells were seeded in Aggre Well plates (stemcell) at 5,000 cells/microwell and cultured for 5 days in E6 medium (GIBCO) to induce embryonic body (EB) formation. For neural rosette formation, EBs were seeded into 35 mm dishes in groups of 30 and cultured for 10 days in N2bF medium. The 35 mm dishes were used after being coated with 15 μg/ml of poly-L-ornithine (sigma) and 1 μg/ml of fibronectin (sigma). The N2Bf medium composition was DMEM/F12 (GIBCO), N2 supplement (stemcell) 1×, 10% NEAA (GIBCO), 55 µM beta-Mercaptoethanol (GIBCO), bFGF (peprotech) 20 ng/ml. For the formation of spherical neural masses (SNMs), rosette masses were sliced and cultured in petri dishes with N2bF medium. SNMs were no larger than 500 UM in size and were sliced and cultured for 3 to 4 passages. After subculture of SNM, the clumps were broken into small pieces using a tungsten mesh (Nilaco) for the neural progenitor cell (NPC) culture step, and then attached to a PLO/FN-coated dish and cultured in N2bF medium. To differentiate NPCs into dopaminergic neurons, the medium was replaced with an ITS-B27 medium after 2 days of NPC culture. The ITS-B27 medium composition was DMEM/F12 (GIBCO), D-(+)-glucose (sigma) 1.5 mg/ml, insulin (wako) 5 μg/ml, transferrin (wako) 50 μg/ml, selenite (sigma) 30 nM, GlutaMAX (GIBCO) 2.5%, and B27 (GIBCO) 1×. After 4 days of NPC culture, 200 ng/ml of Sonic Hedgehog and 100 ng/ml of FGF8 (peprotech) were added to the ITS-B27 medium. After 6 days of NPC culture, 200 ng/ml of Sonic Hedgehog, 20 ng/ml of GDNF, 20 ng/ml of BDNF (peprotech), 200 µM of ascorbic acid, and 500 μM of cAMP (sigma) were added to the ITS-B27 medium and cultured for approximately 5 weeks. The compound of formula (1a-1) was treated starting from the stage 2 days after NPC culture. […]\nas §2"}},
  "data": [
    {"smiles": "CCCCCCCCCCCCCC[C@H]1OP(=O)(O)O[C@H]1[C@@H](N)CO.Cl", "note": "[formula (1a-1), (4S,5R)-4-((S)-1-amino-2-hydroxyethyl)-2-hydroxy-5-tetradecyl-1,3,2-dioxaphosphoran-2-oxide hydrochloride]", "values": [
      {"measurement": "concentration increasing SIRT1 expression relative to that of resveratrol", "setting": "[1]; HUVEC EC50 about 10 nM vs known EC50 of resveratrol approximately […] μM", "result": "thousands of times lower than that of resveratrol"},
      {"measurement": "increase in SIRT1 expression", "setting": "[1]; HUVECs, 10 nM, 100 nM and 1000 nM, 24 hours, FIG. 1", "result": "increases the expression of SIRT1 even at a very low concentration of 10 nM"},
      {"measurement": "EC50", "setting": "[1]; Homo sapiens, HUVEC, HUVECs, 24 hours, western blot, read-out: concentration (EC50) that increased the expression of SIRT1 by 50%", "result": "~10", "unit": "nM"},
      {"measurement": "permeability, SIRT1 knockdown", "setting": "[2]; MYSEC with knockdown of SIRT1 protein, LPS", "result": "does not show the effect"},
      {"measurement": "permeability", "setting": "[2]; MYSEC, 300 ng LPS, 24 hours", "result": "restores the LPS-induced increased permeability to normal"},
      {"measurement": "amount of Evans blue dye (EBD) in each organ", "setting": "[3]", "result": "returns to normal"},
      {"measurement": "expression of TH", "setting": "[4]; differentiated dopaminergic neurons treated with rotenone (RT)", "result": "the expression of TH decreased by rotenone was restored"},
      {"measurement": "effectiveness relative to resveratrol (control drug), TH expression", "setting": "[4]; rotenone-treated differentiated dopaminergic neurons", "result": "more effective than resveratrol"},
      {"measurement": "differentiation of pluripotent stem cells into dopaminergic neurons", "setting": "[5]", "result": "can promote the differentiation of pluripotent stem cells into dopaminergic neurons"},
      {"measurement": "TH expression (western blot)", "setting": "[6]; 5-week differentiation sample, FIG. 5B", "result": "TH expression is increased"},
      {"measurement": "expression of TH (cell fluorescence immunostaining)", "setting": "[6]; FIG. 5A", "result": "the expression of TH increased"},
      {"measurement": "time at which TH expression was elevated", "setting": "[6]; FIG. 5A, TH expression otherwise increases after more than 5 weeks of differentiation", "result": "≤ 3", "unit": "weeks"}
    ]}
  ]
}
